# Experimental data from US10336733B2, “Aryl acylsulfonamides as BLT1 antagonists” (Merck Sharp & Dohme Corp., priority 2015, dated 2019).
# Molecular target: human BLT1 receptor (Homo sapiens (Human), UniProt Q15722)
# Assay: BLT-1 cAMP Assay
# Assay type: cell-based
# Details: antagonist mode; HEK293 cells recombinantly expressing human BLT1 receptor; forskolin 4 μM and LTB4 2 nM; cAMP detection
# Experimental: The ability of compounds to antagonize the human BLT1 receptor was determined using a kit to measure changes in intracellular cyclic AMP levels (cAMP dynamic assay kit, Cisbio Cat. No. 62AM4PEC). HEK293 cells recombinantly expressing human BLT1 receptor, previously frozen in Recovery Medium (Life Technologies, Cat. No. 12648-010) were thawed and diluted into assay medium (HBSS (Hyclone SH 30268.01), 20 mM HEPES (Gibco 15630-106), 800 μM IBMX (Sigma I5879), 0.1% DTPA BSA (Perkin Elmer CR84-100)). The cell suspension was centrifuged at 200×g for 10 min and then resuspended in fresh assay medium to a density of 2.5×10^5 cells/mL. A Labcyte Echo 550 acoustic dispenser was used to transfer 25 nL of test compound dissolved in DMSO into the wells of a dry 384-well plate (Greiner 784075). All subsequent liquid additions were performed using a BIORAPTR (FRD; Beckman Coulter). Next, 5 μL of cell suspension was added and incubated for 20 min. at 37° C. and 5% CO2 in a humidified plastic tray. To test for agonist activity […] of assay buffer containing forskolin (Sigma F-6886. 4 μM for BLT1) was added and incubated for 30 minutes at 37° C. and 5% CO2 in a humidified plastic tray. To test for antagonist activity 5 μL of assay buffer containing forskolin (Sigma F-6886. 4 μM for BLT1) and either LTB4 (Sigma Aldrich L0517; 2 nM BLT1) was added and incubated for 30 minutes at 37° C. and 5% CO2 in a humidified plastic tray.
# The levels of cAMP were detected using the CisBio kit following the manufacturer's instructions: cAMP-d2 vial was reconstituted with distilled water and then diluted accordingly with conjugate & lysis buffer. 5 μL of cAMP-d2 working solution was added to all of the wells of the assay plate. cAMP-Cryptate vial was reconstituted with distilled water and then diluted accordingly with conjugate & lysis buffer. 5 μL of cAMP-Cryptate working solution were added to the assay plate. The assay plate was shaken for 3 minutes and incubated at room temperature for 45 minutes, then read on Perkin Elmer Envision. cAMP standard curve and fit data were plotted using a 4 parameter dose response curve fitting algorithm to fit curve. A 4-parameter curve fit (Max, min, log EC50 and slope) was used to transform fluorescent 665 nm/615 nm ratio signal to cAMP concentration. After normalization to treated and untreated controls, the percent effect of signal at each compound concentration was calculated. The plot of percent effect versus the log of compound concentration was fit with a 4-parameter concentration response equation to calculate EC50 values. Compound concentrations tested were 10 000, 3 333, 1 111, 370.4, 123.4, 41.2, 13.7, 4.6, 1.5 and 0.5 nM with 0.25% residual DMSO.
# Sequence of human BLT1 receptor (Q15722 whole entry): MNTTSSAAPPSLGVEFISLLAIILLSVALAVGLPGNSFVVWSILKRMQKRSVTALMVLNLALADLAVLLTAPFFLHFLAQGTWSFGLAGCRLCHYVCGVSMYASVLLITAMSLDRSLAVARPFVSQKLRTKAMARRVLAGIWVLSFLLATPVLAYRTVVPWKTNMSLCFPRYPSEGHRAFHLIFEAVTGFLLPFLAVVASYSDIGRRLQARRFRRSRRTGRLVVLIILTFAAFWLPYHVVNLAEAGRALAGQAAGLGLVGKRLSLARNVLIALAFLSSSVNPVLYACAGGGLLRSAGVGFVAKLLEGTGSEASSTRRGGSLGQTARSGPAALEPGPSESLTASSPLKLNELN
row,Compound,EC50 [nM]
1,"CC(C)(C)S(=O)(=O)NC(=O)c1ccccc1-c1ccc2c(c1)OC[C@@H](Cc1cscn1)[C@@H]2O (racemic) [Example 32, N-(tert-Butylsulfonyl)-2-((rac-trans)-4-hydroxy-3-(thiazol-4-ylmethyl)chroman-7-yl)benzamide]",11
2,"CC1(S(=O)(=O)NC(=O)c2ccccc2-c2ccc3c(c2)OC[C@H](Cc2ccccn2)[C@H]3O)CC1 (single isomer, unassigned) [Example 8, 2-((3S,4R or 3R,4S)-4-Hydroxy-3-(pyridin-2-ylmethyl)chroman-7-yl)-N-((1-methylcyclopropyl)sulfonyl)benzamide]",22
3,"CC1(S(=O)(=O)NC(=O)c2ccccc2-c2ccc3c(c2)OC[C@H](Cc2cscn2)[C@H]3O)CC1 (racemic) [Example 25, 2-(Rac-trans)-4-Hydroxy-3-(thiazol-4-ylmethyl)chroman-7-yl)-N-((1-methylcyclopropyl)sulfonyl)benzamide]",16
4,"O=C(NS(=O)(=O)C1CC1)c1ccccc1-c1ccc2c(c1)OC[C@H](Cc1ccccc1)[C@H]2O (single isomer, unassigned) [Example 24, 2-((3S,4R or 3R,4S)-3-Benzyl-4-hydroxychroman-7-yl)-N-(cyclopropylsulfonyl)benzamide]",17
5,"CC(C)CS(=O)(=O)NC(=O)c1ccccc1-c1ccc2c(c1)OCC(Cc1ccccn1)C2O (stereo not drawn) [Example 17, 2-((3,4-trans)-4-Hydroxy-3-(pyridin-2-ylmethyl)chroman-7-yl)-N-(isobutylsulfonyl)benzamide]",24
6,"O=C(NS(=O)(=O)C(F)(F)F)c1ccc(F)cc1-c1ccc2c(c1)OC[C@@H](Cc1ccccn1)[C@@H]2O (single isomer, unassigned) [Example 1, 4-Fluoro-2-((3R,4S or 3S,4R)-4-hydroxy-3-(pyridin-2-ylmethyl)chroman-7-yl)-N-((trifluoromethyl)sulfonyl)benzamide]",650
7,"CC1(S(=O)(=O)NC(=O)c2ccc(F)cc2-c2ccc3c(c2)OC[C@@H](Cc2ccccn2)[C@@H]3O)CC1 (single isomer, unassigned) [Example 10, 4-Fluoro-2-((3R,4S or 3S,4R)-4-hydroxy-3-(pyridin-2-ylmethyl)chroman-7-yl)-N-((1-methylcyclopropyl)sulfonyl)benzamide]",870
8,"O=C(NS(=O)(=O)C(F)(F)F)c1ccc(F)cc1-c1ccc2c(c1)OC[C@@H](Cc1ccc(-c3ccccc3)cc1)[C@@H]2O (single isomer, unassigned) [Example 41, 2-((3R,4S or 3S,4R)-3-([1,1′-Biphenyl]-4-ylmethyl)-4-hydroxychroman-7-yl)-4-fluoro-N-((trifluoromethyl)sulfonyl)benzamide]",11
9,"CC(C)(C)CS(=O)(=O)NC(=O)c1ccccc1-c1ccc2c(c1)OCC(Cc1ccccn1)C2O (stereo not drawn) [Example 20, 2-((3,4-trans)-4-Hydroxy-3-(pyridin-2-ylmethyl)chroman-7-yl)-N-(neopentylsulfonyl)benzamide]",44
10,"CC1(S(=O)(=O)NC(=O)c2ccccc2-c2ccc3c(c2)OC[C@H](Cc2cscn2)[C@H]3O)CC1 (single isomer, unassigned) [Example 27, 2-((3S, 4R or 3R,4S)-4-hydroxy-3-(thiazol-4-ylmethyl)chroman-7-yl)-N-((1-methylcyclopropyl)sulfonyl)benzamide]",26

# Next, values leading:
row,EC50 [nM],Compound
1,2040,"CC1(S(=O)(=O)NC(=O)c2ccccc2-c2ccc3c(c2)OC[C@@H](Cc2ccccc2)[C@@H]3O)CC1 (single isomer, unassigned) [Example 21, 2-((3R,4S or 3S,4R)-3-Benzyl-4-hydroxychroman-7-yl)-N-((1-methylcyclopropyl)sulfonyl)benzamide]"
2,75,"CC(C)(C)S(=O)(=O)NC(=O)c1ccccc1-c1ccc2c(c1)OC[C@@H](Cc1coc(-c3ccccc3)n1)[C@@H]2O (single isomer, unassigned) [Example 47, N-(tert-Butylsulfonyl)-2-((3R,4S or 3S,4R)-4-hydroxy-3-((2-phenyloxazol-4-yl)methyl)chroman-7-yl)benzamide]"
3,9,"CC(C)(C)S(=O)(=O)NC(=O)c1ccccc1-c1ccc2c(c1)OC[C@H](Cc1cscn1)[C@H]2O (single isomer, unassigned) [Example 34, N-(tert-Butylsulfonyl)-2-((3S,4R or 3R,4S)-4-hydroxy-3-(thiazol-4-ylmethyl)chroman-7-yl)benzamide]"
4,144,"CC(C)(C)S(=O)(=O)NC(=O)c1ccccc1-c1ccc2c(c1)OC[C@@H](Cc1ccccn1)[C@@H]2O (single isomer, unassigned) [Example 11, N-(tert-Butylsulfonyl)-2-((3R,4S or 3S,4R)-4-hydroxy-3-(pyridin-2-ylmethyl)chroman-7-yl)benzamide]"
5,1270,"CC1(S(=O)(=O)NC(=O)c2ccccc2-c2ccc3c(c2)OC[C@@H](Cc2ccccn2)[C@@H]3O)CC1 (single isomer, unassigned) [Example 7, 2-((3R,4S or 3S,4R)-4-Hydroxy-3-(pyridin-2-ylmethyl)chroman-7-yl)-N-((1-methylcyclopropyl)sulfonyl)benzamide]"
6,441,"CC(C)(C)S(=O)(=O)NC(=O)c1ccc(F)cc1-c1ccc2c(c1)OC[C@@H](Cc1ccccn1)[C@@H]2O (single isomer, unassigned) [Example 13, N-(tert-Butylsulfonyl)-4-fluoro-2-((3R,4S or 3S,4R)-4-hydroxy-3-(pyridin-2-ylmethyl)chroman-7-yl)benzamide]"
7,1160,"CCn1nccc1C[C@@H]1COc2cc(-c3ccccc3C(=O)NS(=O)(=O)C(C)(C)C)ccc2[C@H]1O (single isomer, unassigned) [Example 38, N-(tert-Butylsulfonyl)-2-((3R,4S or 3S,4R)-3-((1-ethyl-1H-pyrazol-5-yl)methyl)-4-hydroxychroman-7-yl)benzamide]"
8,4,"CC1(S(=O)(=O)NC(=O)c2ccc(F)cc2-c2ccc3c(c2)OC[C@H](Cc2ccccn2)[C@H]3O)CC1 (single isomer, unassigned) [Example 9, 4-Fluoro-2-((3S,4R or 3R,4S)-4-hydroxy-3-(pyridin-2-ylmethyl)chroman-7-yl)-N-((1-methylcyclopropyl)sulfonyl)benzamide]"
9,9,"O=C(NS(=O)(=O)C(F)(F)F)c1ccc(F)cc1-c1ccc2c(c1)OC[C@H](Cc1ccc(-c3ccccc3)cc1)[C@H]2O (racemic) [Example 40, 2-((Rac-trans)-3-([1,1′-Biphenyl]-4-ylmethyl)-4-hydroxychroman-7-yl)-4-fluoro-N-((trifluoromethyl)sulfonyl)benzamide]"
10,2820,"O=C(NS(=O)(=O)C1CC1)c1ccccc1-c1ccc2c(c1)OC[C@@H](Cc1ccccc1)[C@@H]2O (single isomer, unassigned) [Example 23, 2-((3R,4S or 3S,4R)-3-Benzyl-4-hydroxychroman-7-yl)-N-(cyclopropylsulfonyl)benzamide]"
11,2170,"O=C(NS(=O)(=O)C1CC1)c1ccccc1-c1ccc2c(c1)OC[C@@H](Cc1ccccn1)[C@@H]2O (single isomer, unassigned) [Example 5, N-(Cyclopropylsulfonyl)-2-((3R,4S or 3S,4R)-4-hydroxy-3-(pyridin-2-ylmethyl)chroman-7-yl)benzamide]"
